Reference: PubChem BioAssay (NCI)
Where “and” joins values, the source holds several entries; their conditions need not be identical. Equal entries are not always repeated.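 Dose response: 5 concentrations. Exposure: 48 h. Format: 96-well plates. Endpoint: linear interpolation; highest concentration if not reached. GI50 = concentration required for 50% inhibition of growth. The concentration for full growth arrest is given as TGI.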 Where a SMILES comes first, the peptide text is derived from it.

What was measured:
Test in all cases: NCI anticancer screen, dose series, 48 h
[1] = tested on: 786-0 renal
[2] = tested on: A549 NSCLC
[3] = tested on: HL-60(TB) leukemia
[4] = tested on: M14 melanoma
[5] = tested on: MALME-3M melanoma
[6] = tested on: MOLT-4 leukemia
[7] = tested on: NCI-H226 lung
[8] = tested on: OVCAR-4 ovarian
[9] = tested on: SF-295 CNS
[10] = tested on: SNB-19 CNS

Row | SMILES | TGI [1] | TGI [2] | TGI [3] | TGI [4] | TGI [5] | TGI [6] | TGI [7] | TGI [8] | TGI [9] | TGI [10] | GI50 [3] | GI50 [4] | GI50 [5] | GI50 [6] | GI50 [7] | GI50 [8] | GI50 [9] | GI50 [10]
1 | COc1cccc(C(=O)N[C@@H]2[C@H](O)[C@@H](CO)O[C@H]2n2cnc3c(N)ncnc32)c1 | > 100 µM | > 100 µM | > 100 µM | > 100 µM | > 100 µM | > 100 µM | > 100 µM | > 100 µM | > 100 µM | > 100 µM |  |  |  |  |  |  |  | 
2 | CC1(C)N=C(Oc2ccccc2)n2nccc2N1 | > 100 µM | > 100 µM | > 100 µM | > 100 µM | > 100 µM | > 100 µM | > 100 µM | > 100 µM | > 100 µM | > 100 µM |  |  |  |  |  |  |  | 
3 | CCSC12CC3c4cccc5c4C(CN5C(=O)c4ccccc4)CC3(O1)N(C)C2=O (configuration not stated) | > 100 µM | > 100 µM | 55.7 µM | > 100 µM | 88.3 µM | 62.6 µM | > 100 µM | > 100 µM | > 100 µM | > 100 µM |  |  |  |  |  |  |  | 
4 | CCN(CC)CCC(=O)O[C@H]1CC[C@H](CC(C)[C@H]2CC(=O)C(C)C=C(C)[C@H](OC(=O)CCN(CC)CC)C(OC)C(=O)[C@@H](C)CC(C)/C=C/C=C/C=C(C)C(OC)CC3CC[C@H](C)[C@](O)(O3)C(=O)C(=O)N3CCCCC3C(=O)O2)CC1OC (some centres not stated) | 2.47 µM and 1.72 µM | 7.54 µM and 9.53 µM | 4.48 µM and 1.16 µM | 2.62 µM and 2.2 µM |  | 5.39 µM and 1.32 µM | 3.68 µM and 3.34 µM | > 10 µM and 2.46 µM | 1.46 µM and 1.98 µM | 7.68 µM and 2.24 µM | 1.83 µM and 0.345 µM | 0.871 µM | 0.0579 µM | 0.0255 µM | 1.21 µM | 0.00163 µM | 0.0016 µM | 0.0358 µM
5 | CCOP(=O)(OCC)C(=C1C=C(C(C)(C)C)C(=O)C(C(C)(C)C)=C1)P(=O)(OCC)OCC | > 5.51 µM | > 10 µM | > 7.36 µM | 4.11 µM | 3.38 µM | > 10 µM | > 10 µM | 3.5 µM | > 10 µM | > 10 µM |  |  |  |  |  |  |  | 
6 | COc1ccc(N2C(=O)C3c4[nH]c5ccc(OCc6ccccc6)cc5c4C4CCC(C(C)C)CC4C3C2=O)cc1 (configuration not stated) | > 47.6 µM | > 100 µM | 23.9 µM | > 100 µM | > 100 µM | > 71.7 µM | 42.9 µM | > 100 µM | 29.3 µM | 34.9 µM |  |  |  |  |  |  |  | 
7 | CCCOP(=S)(N1CC1)N1CC1 | > 100 µM | > 100 µM | > 100 µM | > 100 µM | > 100 µM | > 100 µM | > 100 µM | > 100 µM | > 100 µM | > 100 µM |  |  |  |  |  |  |  | 
8 | Cc1cc(Cl)ccc1NC(=O)C(=O)Cc1occc(=O)c1O | > 100 µM | > 100 µM | > 100 µM | > 100 µM | > 100 µM | > 100 µM | > 100 µM | > 100 µM | > 100 µM | > 100 µM |  |  |  |  |  |  |  | 
9 | N#CCN(Cc1ccccc1)[C@@H]1CCC[C@]1(O)C#Cc1ccc2c(c1)OCO2 | 29.2 µM | 34.1 µM | 45.1 µM | 32 µM | 34.3 µM | 57.1 µM | 33.6 µM | 31.2 µM | 41.8 µM | 41.5 µM |  |  |  |  |  |  |  | 
10 | Cc1cc(-c2ccc(C(=O)C(c3ccccc3)(c3ccccc3)c3ccccc3)[nH]2)on1 | 40.7 µM | 45.6 µM | 26.1 µM | 71.8 µM | > 100 µM | 84.9 µM | 42.5 µM | 88.1 µM | 97.7 µM | 58.4 µM |  |  |  |  |  |  |  | 
11 | CC(=O)NC(CO)C(=O)NC(Cc1ccc(O)cc1)C(=O)NCC(N)=O (stereo not drawn) (Ac-Ser-Tyr-Gly-NH2; configuration not given here) | > 100 µM | > 100 µM | > 100 µM | > 100 µM | > 100 µM | > 100 µM | > 100 µM | > 100 µM | > 100 µM | > 100 µM |  |  |  |  |  |  |  | 
12 | COC(=O)C1=NN2c3ccccc3CN([C@@H](C)c3ccccc3)C(=O)[C@H]2[C@@H]1C | > 100 µM | > 100 µM | > 100 µM | > 100 µM | > 100 µM | > 100 µM | > 100 µM | > 100 µM | > 100 µM | > 100 µM |  |  |  |  |  |  |  | 
13 | NCCC1([N+](=O)[O-])CCNCC1 | > 100 µM | > 100 µM | > 100 µM | > 100 µM | > 100 µM | > 100 µM | > 100 µM | > 100 µM | > 100 µM | > 100 µM |  |  |  |  |  |  |  | 
14 | CN1CCCC(C(=O)OCC(=O)C2(O)CCC3C4CCC5=CC(=O)CCC5(C)C4C(O)CC32C)C1 (configuration not stated) | 14.3 µM | > 67.6 µM | 11 µM | 59.3 µM | 33.2 µM | 48.4 µM | 33.9 µM | 32.5 µM | 46.6 µM | 30.9 µM |  |  |  |  |  |  |  | 
15 | COC(=O)CCC(C)[C@H]1CCC2C3C(C[C@H](OC(C)=O)[C@@]21C)[C@@]1(C)CCC2(C[C@H]1C[C@H]3OC(C)=O)OOC1(CCCCC1)OO2 (some centres not stated) | 48.6 µM | 70.7 µM | > 100 µM | > 100 µM | 97.4 µM | > 100 µM | > 100 µM | 50.9 µM | 80.4 µM | > 100 µM |  |  |  |  |  |  |  | 
16 | O=c1oc2c(ccc3c(O)cccc32)c2c1CCCC2 | > 100 µM | > 100 µM | > 100 µM | > 100 µM | > 100 µM | > 100 µM | > 100 µM | > 100 µM | 58 µM | > 100 µM |  |  |  |  |  |  |  | 
17 | COc1nc(OC)nc(Sc2ccc(Sc3ccc(Sc4nc(OC)nc(OC)n4)cc3)cc2)n1 | > 100 µM | > 100 µM | > 100 µM | > 100 µM | > 100 µM | > 100 µM | > 100 µM | > 100 µM | > 100 µM | > 100 µM |  |  |  |  |  |  |  | 
18 | CC1=C(C)C(=O)C(C2=C(C3=CC(=O)C(C)=C(C)C3=O)C(=O)c3ccccc3C2=O)=CC1=O | 5.74 µM | 17.7 µM | 1.11 µM | 3.64 µM | 2.8 µM | 5.3 µM | 21 µM | 4 µM | 27.9 µM | 25.8 µM |  |  |  |  |  |  |  | 
19 | O=C1Cc2ccccc2CCc2ccsc21 | > 100 µM | > 100 µM | > 100 µM | > 100 µM | > 100 µM | > 100 µM | > 100 µM | > 100 µM | > 100 µM | > 100 µM |  |  |  |  |  |  |  | 
20 | CCc1n[nH]c(=S)n1/N=C\c1ccc(-c2ccccc2[N+](=O)[O-])o1 | > 100 µM | > 100 µM | > 100 µM | > 100 µM | > 100 µM | 57.8 µM | 54.1 µM | > 100 µM | > 100 µM | > 100 µM |  |  |  |  |  |  |  | 
